Experimental data taken from US10793568B2, “Hormone receptor modulators for treating metabolic conditions and disorders” (ARDELYX, INC., priority 2016, dated 2020).
Where two headings read alike, the source gives them in different places.

Tests used:
[1] = molecular target: human Farnesoid X receptor ligand-binding domain/Gal4 DNA binding domain chimera (Homo sapiens (Human), UniProt Q96RI1); experiment: Cell-based assay of FXR activation (FXR-UAS-bla HEK 293T beta-lactamase reporter); conditions: cellular FXR beta-lactamase reporter assay; for Emax: HEK-293T, read-out: % Efficacy
human Farnesoid X receptor ligand-binding domain/Gal4 DNA binding domain chimera, sequence (Q96RI1 262-486, change not shown): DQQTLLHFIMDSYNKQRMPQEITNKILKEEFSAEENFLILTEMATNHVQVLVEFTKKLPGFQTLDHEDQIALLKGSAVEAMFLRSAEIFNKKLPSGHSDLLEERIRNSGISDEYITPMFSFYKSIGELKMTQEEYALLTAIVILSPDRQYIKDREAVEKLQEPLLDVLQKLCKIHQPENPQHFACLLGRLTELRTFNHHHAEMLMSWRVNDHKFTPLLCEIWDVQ
human Farnesoid X receptor ligand-binding domain/Gal4 DNA binding domain chimera, sequence (P04386 1-147 partner): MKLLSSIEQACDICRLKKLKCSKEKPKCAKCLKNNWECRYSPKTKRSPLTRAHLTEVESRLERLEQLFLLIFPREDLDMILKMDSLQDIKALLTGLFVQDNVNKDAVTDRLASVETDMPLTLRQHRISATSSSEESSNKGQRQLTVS
Summary of the method: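 Readout is cleavage of the CCF4 FRET substrate (409 nm excitation, blue 447 nm signal) by beta-lactamase, expressed under UAS control after a Gal4–human FXR LBD chimera is activated in HEK 293T cells. Compounds were added as 3-fold dilutions for 16 h at 37 °C in 2% charcoal-stripped FBS medium. Curves were fit to a 3-parameter logistic equation to give pEC50, with % activation relative to GW4064.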

[2] = molecular target: ligand binding domain of human FXR (Homo sapiens (Human), UniProt Q96RI1); experiment: FXR ligand binding assay (LanthaScreen TR-FRET, SRC2-2 peptide recruitment); conditions: for Emax: read-out: % Efficacy
ligand binding domain of human FXR, sequence (Q96RI1 262-486): as the sequence (Q96RI1 262-486, change not shown) above

[3] = extent of activation relative to GW4064
[4] = FXR-UAS-bla HEK 293T cells, 16 h, pEC50 = -log EC50
[5] = -log EC50, concentration required to produce 50% activation

Row | EC50 [2, 5] | Structure (SMILES) | Emax [1, 3] | EC50 [1, 4] | pEC50 [2, 5] | Emax [2, 3] | Emax [2] | pEC50 [1, 4] | % Efficacy [1, 3] | % Efficacy [2, 3]
1 | – | O=C(O)c1cc(F)c2nc(N3C[C@@H]4C[C@H]3C[C@@H]4OCc3c(-c4c(Cl)cccc4Cl)noc3C3CC3)sc2c1 [Compound I-37, 2-[(1S,4S,5S)-5-{[5-cyclopropyl-3-(2,6-dichlorophenyl)-1,2-oxazol-4-yl]methoxy}-2-azabicyclo[2.2.1]heptan-2-yl]-4-fluoro-1,3-benzothiazole-6-carboxylic Acid] | 82% | 1580 nM | >4.5 | 0% | – | – | – | –
2 | – | O=C(NS(=O)(=O)CC1CCOC1)c1ccc(N2C[C@@H]3C[C@H]2C[C@H]3OCc2c(-c3c(Cl)cccc3Cl)noc2C2CC2)cc1 (stereo partly drawn) [Compound I-186, 4-((1S,4S,5R)-5-((5-cyclopropyl-3-(2,6-dichlorophenyl)isoxazol-4-yl)methoxy)-2-azabicyclo[2.2.1]heptan-2-yl)-N-(((tetrahydrofuran-3-yl)methyl)sulfonyl)benzamide] | 107% | 0.158 nM | 8.9 | 134% | – | – | – | –
3 | – | O=C(NS(=O)(=O)C1CC1)c1ccc(N2C[C@@H]3C[C@H]2C[C@H]3OCc2c(-c3c(Cl)cccc3Cl)noc2C2(F)CC2)c(F)c1 [Compound I-197, N-(cyclopropylsulfonyl)-4-((1S,4S,5R)-5-((3-(2,6-dichlorophenyl)-5-(1-fluorocyclopropyl)isoxazol-4-yl)methoxy)-2-azabicyclo[2.2.1]heptan-2-yl)-3-fluorobenzamide] | 111% | 0.501 nM | 8.5 | 167% | – | – | – | –
4 | – | O=C(O)c1cc(O[C@H]2CCOC2)c2nc(N3C[C@@H]4C[C@H]3C[C@H]4OCc3c(-c4c(F)cccc4Cl)noc3C3CC3)sc2c1 [Compound I-267, 2-((1S,4S,5R)-5-((3-(2-chloro-6-fluorophenyl)-5-cyclopropylisoxazol-4-yl)methoxy)-2-azabicyclo[2.2.1]heptan-2-yl)-4-(((S)-tetrahydrofuran-3-yl)oxy)benzo[d]thiazole-6-carboxylic acid] | 102% | 1 nM | 8.6 | 146% | – | – | – | –
5 | – | O=C(NCc1nn[nH]n1)c1ccc(N2C[C@@H]3C[C@H]2C[C@H]3OCc2c(-c3c(Cl)cccc3Cl)noc2C2CC2)cc1 [Compound I-164, 4-[(1S,4S,5R)-5-{[5-cyclopropyl-3-(2,6-dichlorophenyl)-1,2-oxazol-4-yl]methoxy}-2-azabicyclo[2.2.1]heptan-2-yl]-N-(2H-1,2,3,4-tetrazol-5-ylmethyl)benzamide] | 118% | 79.4 nM | 9.7 | 148% | – | – | – | –
6 | – | O=C(O)c1cc(C2CCC2)c2nc(N3C(=O)[C@@H]4C[C@H]3C[C@H]4OCc3c(-c4c(Cl)cccc4Cl)noc3C3CC3)sc2c1 [Compound I-296, 4-cyclobutyl-2-((1S,4R,5R)-5-((5-cyclopropyl-3-(2,6-dichlorophenyl)isoxazol-4-yl)methoxy)-3-oxo-2-azabicyclo[2.2.1]heptan-2-yl)benzo[d]thiazole-6-carboxylic acid] | 109% | 10 nM | 7.6 | 90% | – | – | – | –
7 | – | Cc1cc(N2C(=O)[C@@H]3C[C@H]2C[C@H]3OCc2c(-c3c(Cl)cccc3Cl)noc2C2CC2)ccc1C(=O)O [Compound I-316, 4-[(1S,4R,5R)-5-{[5-cyclopropyl-3-(2,6-dichlorophenyl)-1,2-oxazol-4-yl]methoxy}-3-oxo-2-azabicyclo[2.2.1]heptan-2-yl]-2-methylbenzoic Acid] | 109% | 7.94 nM | 7.6 | 152% | – | – | – | –
8 | – | CC(O)CCS(=O)(=O)NC(=O)c1ccc(N2C[C@@H]3C[C@H]2C[C@H]3OCc2c(-c3c(Cl)cccc3Cl)noc2C2CC2)cc1 (stereo partly drawn) [Compound I-217, 4-[(1S,4S,5R)-5-{[5-cyclopropyl-3-(2,6-dichlorophenyl)-1,2-oxazol-4-yl]methoxy}-2-azabicyclo[2.2.1]heptan-2-yl]-N-(3-hydroxybutanesulfonyl)benzamide] | 111% | 1 nM | 9.9 | – | 142% | – | – | –
9 | – | O=C(NS(=O)(=O)C1CC1)c1ccc(N2C[C@@H]3C[C@H]2C[C@H]3OCc2c(-c3ccccc3C(F)(F)F)noc2C2CC2)c(F)c1 [Compound I-202, 4-((1S,4S,5R)-5-((5-cyclopropyl-3-(2-(trifluoromethyl)phenyl)isoxazol-4-yl)methoxy)-2-azabicyclo[2.2.1]heptan-2-yl)-N-(cyclopropylsulfonyl)-3-fluorobenzamide] | – | – | 8.5 | – | – | 9.4 | 114% | 215%
10 | – | O=C(O)c1cc(OCC(F)(F)F)c2nc(N3C[C@@H]4C[C@H]3C[C@H]4OCc3c(-c4c(Cl)cccc4Cl)noc3C3CC3)sc2c1 [Compound I-17, 2-[(1S,4S,5R)-5-{[5-cyclopropyl-3-(2,6-dichlorophenyl)-1,2-oxazol-4-yl]methoxy}-2-azabicyclo[2.2.1]heptan-2-yl]-4-(2,2,2-trifluoroethoxy)-1,3-benzothiazole-6-carboxylic acid] | 102% | 0.1 nM | 8.2 | 162% | – | – | – | –
11 | – | O=C(O)Cc1ccc(N2C[C@@H]3C[C@H]2C[C@H]3OCc2c(-c3c(Cl)cccc3Cl)noc2C2CC2)c(F)c1 [Compound I-153, 2-{4-[(1S,4S,5R)-5-{[5-cyclopropyl-3-(2,6-dichlorophenyl)-1,2-oxazol-4-yl]methoxy}-2-azabicyclo[2.2.1]heptan-2-yl]-3-fluorophenyl}acetic Acid] | 100% | 10 nM | 9.2 | 130% | – | – | – | –
12 | – | O=C(O)c1cc(C2CCOCC2)c2nc(N3C[C@@H]4C[C@H]3C[C@H]4OCc3c(-c4c(F)cccc4Cl)noc3C3CC3)sc2c1 [Compound I-264, 2-((1S,4S,5R)-5-((3-(2-chloro-6-fluorophenyl)-5-cyclopropylisoxazol-4-yl)methoxy)-2-azabicyclo[2.2.1]heptan-2-yl)-4-(tetrahydro-2H-pyran-4-yl)benzo[d]thiazole-6-carboxylic acid] | 105% | 0.631 nM | 8.5 | 142% | – | – | – | –
13 | 1.58 nM | O=C(O)c1cc(F)c(N2C[C@@H]3C[C@H]2C[C@H]3OCc2c(-c3c(Cl)cccc3Cl)noc2C2CC2)c(F)c1 [Compound I-54, 4-[(1S,4S,5R)-5-{[5-cyclopropyl-3-(2,6-dichlorophenyl)-1,2-oxazol-4-yl]methoxy}-2-azabicyclo[2.2.1]heptan-2-yl]-3,5-difluorobenzoic Acid] | 101% | 0.316 nM | – | 158% | – | – | – | –
14 | – | O=C(O)c1cc(F)c2nc(N3C[C@@H]4C[C@H](OC(=O)c5c(-c6c(Cl)cccc6Cl)noc5C5CC5)[C@H]3C4)sc2c1 [Compound I-64, 2-[(1R,4S,6S)-6-[5-cyclopropyl-3-(2,6-dichlorophenyl)-1,2-oxazole-4-carbonyloxy]-2-azabicyclo[2.2.1]heptan-2-yl]-4-fluoro-1,3-benzothiazole-6-carboxylic Acid] | 55% | 501 nM | >4.5 | – | – | – | – | –
15 | – | Cc1cccc(Cl)c1-c1noc(C2CC2)c1CO[C@@H]1C[C@@H]2C[C@H]1CN2c1nc2c([C@@H]3CCOC3)cc(C(=O)O)cc2s1 [Compound I-273, 2-((1S,4S,5R)-5-((3-(2-chloro-6-methylphenyl)-5-cyclopropylisoxazol-4-yl)methoxy)-2-azabicyclo[2.2.1]heptan-2-yl)-4-((S)-tetrahydrofuran-3-yl)benzo[d]thiazole-6-carboxylic Acid] | 106% | 0.398 nM | 8.4 | 132% | – | – | – | –
16 | – | N#Cc1cc(N2C[C@@H]3C[C@H]2C[C@H]3OCc2c(-c3c(Cl)cccc3Cl)noc2C2(F)CC2)ccc1C(=O)O [Compound I-123, 2-cyano-4-[(1S,4S,5R)-5-{[3-(2,6-dichlorophenyl)-5-(1-fluorocyclopropyl)-1,2-oxazol-4-yl]methoxy}-2-azabicyclo[2.2.1]heptan-2-yl]benzoic Acid] | 99% | 0.501 nM | 8.6 | 160% | – | – | – | –
17 | – | O=C(O)c1ccc(N2C[C@@H]3C[C@H]2C[C@H]3OC(=O)c2c(-c3c(Cl)cccc3Cl)noc2C2(F)CC2)c(F)c1 [Compound I-44, 4-[(1S,4S,5R)-5-[3-(2,6-dichlorophenyl)-5-(1-fluorocyclopropyl)-1,2-oxazole-4-carbonyloxy]-2-azabicyclo[2.2.1]heptan-2-yl]-3-fluorobenzoic Acid] | 107% | 10 nM | 7.6 | 152% | – | – | – | –
18 | – | O=C(NS(=O)(=O)CC1CCOCC1)c1ccc(N2C(=O)[C@@H]3C[C@H]2C[C@H]3OCc2c(-c3c(Cl)cccc3Cl)noc2C2CC2)cc1 [Compound I-339, 4-((1S,4R,5R)-5-((5-cyclopropyl-3-(2,6-dichlorophenyl)isoxazol-4-yl)methoxy)-3-oxo-2-azabicyclo[2.2.1]heptan-2-yl)-N-(((tetrahydro-2H-pyran-4-yl)methyl)sulfonyl)benzamide] | 118% | 5.01 nM | 8.6 | 198% | – | – | – | –
19 | – | CS(=O)(=O)NC(=O)c1ccc(N2C[C@@H]3C[C@H]2C[C@H]3OC(=O)c2c(-c3c(Cl)cccc3Cl)noc2C2CC2)c(F)c1 [Compound I-48, (1S,4S,5R)-2-[2-fluoro-4-(methanesulfonylcarbamoyl)phenyl]-2-azabicyclo[2.2.1]heptan-5-yl 5-cyclopropyl-3-(2,6-dichlorophenyl)-1,2-oxazole-4-carboxylate] | 119% | 6.31 nM | 7.6 | 199% | – | – | – | –
